BigSolDB 2.1

CCc1ccc(CCOc2ccc(CC3SC(=O)NC3=O)cc2)nc1.Cl (stereo not drawn)
solubility (mole fraction)
Conditions | in DMF | in acetic acid | in ethanol | in methanol | in n-propanol
278.15 K | 0.0161 | – | 0.000535 | 0.004 | 0.000325
283.15 K | 0.017 | – | – | 0.00494 | 0.000395
284.15 K | – | – | 0.000626 | – | –
288.15 K | 0.0183 | 0.00108 | 0.000723 | 0.00615 | 0.000456
293.15 K | 0.0194 | 0.0015 | 0.000879 | 0.00738 | 0.000522
298.15 K | 0.021 | 0.00203 | 0.00103 | 0.0086 | 0.00063
303.15 K | 0.0227 | 0.00276 | 0.00121 | 0.0101 | 0.00075
308.15 K | 0.0247 | 0.0038 | 0.00147 | 0.0121 | 0.00088
313.15 K | 0.0269 | 0.00558 | 0.00178 | 0.0144 | 0.00104
318.15 K | 0.0292 | 0.00804 | 0.00222 | 0.0173 | 0.00127
323.15 K | 0.0323 | 0.0118 | 0.00266 | 0.0211 | 0.00149
